Measurements taken from publication PMC5688156, “The natural product carolacton inhibits folate-dependent C1 metabolism by targeting FolD/MTHFD” (Nature Communications, 2017).

Key:
[1] = molecular target: T1, hsMTHFD2 (Homo sapiens, UniProt P13995); experiment: hsMTHFD2 cyclohydrolase (CYH) enzyme assay; format: biochemical
T1 construct: His-tag (vector pHis-TEV) (cleaved yes); made in house; host or cells: E. coli BL21 (DE3)
T1 sequence (P13995 36-350): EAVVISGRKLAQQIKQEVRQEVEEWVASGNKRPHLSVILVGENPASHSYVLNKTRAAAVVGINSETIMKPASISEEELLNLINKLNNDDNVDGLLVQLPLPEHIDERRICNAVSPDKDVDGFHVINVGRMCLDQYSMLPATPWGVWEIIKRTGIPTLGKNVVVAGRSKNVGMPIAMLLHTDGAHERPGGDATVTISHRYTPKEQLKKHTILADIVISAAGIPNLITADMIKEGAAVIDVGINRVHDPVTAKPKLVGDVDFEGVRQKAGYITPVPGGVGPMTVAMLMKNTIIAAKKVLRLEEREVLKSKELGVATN
Method: (§1) (6R,S)-5,10-Methylene-5,6,7,8-tetrahydrofolic acid ((6R,S)-5,10-CH2-THF) calcium salt and (6R,S)-5,10-Methenyl-5,6,7,8-tetrahydrofolic acid ((6R,S)-5,10-CH=THF) chloride were purchased from Schircks Laboratories (Bauma, Switzerland) and used as substrates for FolD dehydrogenase and cyclohydrolase enzyme assays, respectively. Only the R-isomer, which accounts for 50% of (6R,S)-5,10-CH2-THF and (6R,S)-5,10-CH=THF, respectively, is used by the enzyme. (6R,S)-5,10-CH2-THF was dissolved in N2-spargeled basic buffer (50 mM Tris-HCl (pH 8.0), 100 mM β-mercaptoethanol) as described by Varshney et al.[25]. (6R,S)-5,10-CH=THF was dissolved in DMSO as a 100 mM stock solution.
Because FolD is a bifunctional enzyme, dehydrogenase and cyclohydrolase activities were determined for FolD enzyme kinetics, respectively. The dehydrogenase activity of FolD was assayed for its substrate 5,10-CH2-THF and cofactor NADP^+ (in the case of MTHFD2, NAD^+ was used as the cofactor) based on monitoring the formation of 5,10-CH=THF, while the cyclohydrolase activity of FolD was determined for its substrate 5,10-CH=THF by monitoring the hydrolysis of […]. The enzyme kinetics for the dehydrogenase activity of all FolDs except hsMTHFD1_DC were determined at 30 °C in 50 mM Tris-HCl (pH 7.5), 30 mM β-mercaptoethanol. The hsMTHFD1_DC dehydrogenase activity was measured in 25 mM MOPS (pH 7.3), 30 mM β-mercaptoethanol at 30 °C. […] To monitor the formation of 5,10-CH=THF, the absorbance of the reaction mixture was monitored at 350 nm in micro UV cuvettes (BRAND, Essex, Connecticut, USA). The concentration of 5,10-CH=THF produced in the reaction was determined using an extinction co-efficient of 0.0249 μM^−1 cm^−1. […] The consumption of 5,10-CH=THF was measured by recording the absorbance of the reactions at 355 nm using the TECAN Infinite 200 PRO equipped with a monochromator. […] The inhibition constants (K i) of carolacton on FolD were determined by measuring the apparent K m when adding certain amounts of carolacton to the enzyme reactions. […]

[2] = test system: E. coli DSM-1116 (WT); experiment: MIC determination on E. coli DSM-1116 (WT); format: cell-based; details: Escherichia coli
Method: The determination of MICs was performed as described elsewhere. In brief, E. coli strains were treated with carolacton in serial dilution in either the presence or absence of sub-inhibitory concentrations of polymyxin B nonapeptide (PMBN; 3 µg/mL) and/or phenylalanine–arginine β-napthylamide (PAβN; 20 µg/mL) for 16 h at 37 °C in Mueller–Hinton broth. The MICs were assessed by visual inspection of the plates.

[3] = molecular target: T2, ecFolD Q98H (Escherichia coli, UniProt P24186, Q98H); experiment: ecFolD Q98H mutant dehydrogenase (DH) enzyme assay; format: biochemical, E. coli
T2 construct: His-tag (TEV-cleavable, vector pHis-TEV); made in house; host or cells: E. coli BL21 (DE3)
Method: as §1
Because FolD is a bifunctional enzyme, dehydrogenase and cyclohydrolase activities were determined for FolD enzyme kinetics, respectively. The dehydrogenase activity of FolD was assayed for its substrate 5,10-CH2-THF and cofactor NADP^+ (in the case of MTHFD2, NAD^+ was used as the cofactor) based on monitoring the formation of 5,10-CH=THF, while the cyclohydrolase activity of FolD was determined for its substrate 5,10-CH=THF by monitoring the hydrolysis of […]. The enzyme kinetics for the dehydrogenase activity of all FolDs except hsMTHFD1_DC were determined at 30 °C in 50 mM Tris-HCl (pH 7.5), 30 mM β-mercaptoethanol. […]

CO[C@H](CC(=O)O)[C@@H](C)C(=O)[C@H](C)/C=C(\C)[C@H]1OC(=O)[C@H](O)[C@H](O)/C=C/[C@H](C)CCC[C@@H]1C [carolacton]
IC50 ([1]; 5 nM enzyme, read-out: IC50, carolacton inhibition on CYH activity): 85.7 nM | IC80 ([1]; 5 nM enzyme, read-out: IC80, carolacton inhibition on CYH activity): 202 nM | Ki ([1]; vs 5,10-CH=THF, read-out: Ki (5,10-CH=THF), carolacton inhibition on CYH activity): 12.7 nM | MIC ([2]; DSM1116, + 3 µg/mL PMBN + 20 µg/mL PAβN, no full inhibition): 2 µg/mL | MIC ([2]; DSM1116, + 3 µg/mL PMBN, cation-adjusted Mueller–Hinton broth): ≥ 64 µg/mL | MIC ([2]; DSM1116, + 20 µg/mL PAβN (efflux inhibitor), no full inhibition): 2 µg/mL | MIC ([2]; DSM1116, no additive, cation-adjusted Mueller–Hinton broth): > 64 µg/mL | IC50 [3]: 313 nM | IC80 ([3]; read-out: IC80, carolacton inhibition on DH activity): 1930 nM
